ChEMBL document CHEMBL1128628, “in vivo potent antimalarial 1,2,4-trioxanes: Synthesis and activity of 8-(-arylvinyl)-6,7,10-trioxaspiro[4,5]decanes and 3-(-arylvinyl)-1,2,5-trioxaspiro[5,5]undecanes against Plasmodium berghei in mice” (1995)
Activity calls are given as the source filed them. No cut-off for these calls is given here.

system: Mus musculus; assay: Evaluated for antimalarial activity against Plasmodium berghei in mice (Mus musculus) at 90 mg/kg; active; format: functional, organism-based; set-up: dose 90 mg/kg

SMILES	Activity
C=C(c1ccc(Cl)cc1)C1COC2(CCCCC2)OO1 (stereo unspecified)	Active
C=C(c1ccc(Cl)cc1)C1COC2(CCCC2)OO1 (stereo unspecified)	Active
C=C(c1ccc(C)cc1)C1COC2(CCCC2)OO1 (stereo unspecified)	Active
C=C(c1ccc(F)cc1)C1COC2(CCCCC2)OO1 (stereo unspecified)	Active
C=C(c1ccccc1)C1COC2(CCCC2)OO1 (stereo unspecified)	Active
C=C(c1ccc(F)cc1)C1COC2(CCCC2)OO1 (stereo unspecified)	Active
C=C(c1ccc(OC)cc1)C1COC2(CCCC2)OO1 (stereo unspecified)	Active

system: Mus musculus; assay: Evaluated for antimalarial activity against Plasmodium berghei in mice (Mus musculus) at 90 mg/kg; inactive; format: functional, organism-based; set-up: dose 90 mg/kg

SMILES	Activity
C=C(c1ccccc1)C1(C)COC2(CCCC2)OO1 (stereo unspecified)	inactive
C=C(c1ccc(OC)cc1)C1COC2(CCCCC2)OO1 (stereo unspecified)	inactive
C=C(c1ccc(C)cc1)C1COC2(CCCCC2)OO1 (stereo unspecified)	inactive
C=C(c1ccccc1)C1COC2(CCCCC2)OO1 (stereo unspecified)	inactive
C=C(c1ccc(Cl)cc1)C1(C)COC2(CCCC2)OO1 (stereo unspecified)	inactive
C=C(c1ccc(Cl)cc1)C1(C)COC2(CCCCC2)OO1 (stereo unspecified)	inactive
C=C(c1ccccc1)C1(C)COC2(CCCCC2)OO1 (stereo unspecified)	inactive

system: Mus musculus; assay: Evaluated for antimalarial activity against Plasmodium berghei in mice (Mus musculus) at 30 mg/kg on day 6; format: functional

SMILES	Suppression [%]
C=C(c1ccc(Cl)cc1)C1COC2(CCCC2)OO1 (stereo unspecified)	>90
C=C(c1ccccc1)C1COC2(CCCC2)OO1 (stereo unspecified)	>90
